Several values for one entry are separate records, joined by “and”; a condition that tells them apart may be missing. Equal values may be shown once. Read-outs that look alike come from different tables or passages of the source.
Test: in vivo
Type: in vivo
Conditions: rat
Protocol: […] Whole blood samples were taken from a lateral tail vein for plasma separation at time points 0 min, 30 min, 1 h, 2 h and 4 h after p.o. dosing; and 0 min, 15 min, 30 min, 1 h, and 2 h after i.v. dosing, while the terminal samples at time point 6 h after dosing (p.o and Lv.) were taken by cardiac puncture. All time points were taken from a single rat, and all experiments were carried out in triplicate.
The samples were thawn at room temperature and prepared by protein precipitation with ratio 1:2 of plasma and acetonitrile and were centrifuged 10 minutes at 16 100×g (Eppendorf 5415D, Eppendorf AG, Hamburg, Germany) before injection to UPLCIMSMS system. The standard samples were prepared similarly, after spiking blank plasma samples to 0.5, 2, 5, 10, 20, 50, 200, 500, 1000 and 2000 ng/ml of the analyte compounds.
The pharmacokinetic parameters for study compounds were calculated by WinNonlin Pro (Pharsight Corp, CA) using standard noncompartmental methods. The volume of distribution (Vd) was based on the terminal phase. The elimination phase half-life (t1/2) was calculated by least-squares regression analysis of the terminal linear part of the log concentration-time curve. The area under the plasma concentration-time curve (AUC) was determined by use of the linear trapezoidal rule up to the last measurable concentration and thereafter by extrapolation of the terminal elimination phase to infinity. The area under the plasma concentration-time curve without terminal extrapolation is reported as AUC 0-6 h. The mean residence time (MRT) representing the average amount of time a compound remains in a compartment or system was calculated extrapolating the drug concentration profile to infinity. The maximum plasma concentration (cmax) and the time to cmax (tmax) were derived directly from the plasma concentration data. The tentative oral bioavailability (F) was calculated by dividing the AUC after p.o. administration by the AUC after i.v. administration taking into account the differences in dose, i.e. F=AUC(p.o.)/Dose(p.o.)/AUC(i.v)/[…], and reported as percentages (%).
A Waters Acquity chromatographic system (Waters Corp., Milford, Mass., USA) with autosampler, vacuum degasser and column oven was used. The analytical column used for all compounds was a Waters BEH ShieldRP18, (2.1×50 mm, 1.7 μm, Waters Corp, Milford, Mass., USA) together with an on-line filter. The eluents were 0.1% acetic acid (A, pH 3.2) and acetonitrile (B). A linear gradient elution from 5% B to 35% B in 0-2 minutes, from 35% B to 85% B in 2.0-3.0 min was employed, followed by 1 min isocratic elution with […] and column equilibration. The flow rate was 0.5 ml/min and the column oven temperature was 35° C. LC/MS/MS/data was acquired with a Micromass Quattro Premier triple quadrupole mass spectrometer equipped with a LockSpray electrospray ionization source. A negative ion mode ionisation was used. The multiple reaction monitoring (MRM) mode of detection was used. The mass spectrometer and UPLC system were operated under Micromass MassLynx 4.1 software. Complete LC/MS/MS parameters are presented in Appendix I.
Detection/quantitation limits between 2 ng/ml and 10 ng/ml in plasma were obtained for each compound. Calibration curves for quantification were generated by fitting the ratio of the external standard peak areas as a function of the concentration, excluding the point of origin and using 1/x weighting and linear or quadratic fitting. The ranges up to 2000 ng/ml were fitted for calibration curves. […] The overall precisions 12.0-17.0% were calculated from the standard samples (two injection/concentration), using Snedecor equation S=(Σd^2/2n)^0.5, in which S=precision, d is the difference between duplicates expressed as % of the mean value, and N is the number of standard concentration. The concentrations of each study compound in the samples are shown in the Appendices IV-VI.

[1] = 2 mg/kg i.v., individual animals, 2 mg/kg
[2] = in vivo, iv, 2 mg/kg, 2 mg/kg i.v., individual animals, read-out: t1/2
[3] = in vivo, iv, 2 mg/kg, i.v. 2 mg/kg, mean n=3, read-out: t1/2
[4] = 20 mg/kg p.o., individual animals, 20 mg/kg

CC(C)c1cc(-c2ccc(Cl)cc2)cc(C(C)C)c1O [4-(p-Cl—Ph)-propofol, 4-(para-Chlorophenyl)-propofol]
bioavailability (plasma, po, 20 mg/kg p.o. vs 2 mg/kg i.v., read-out: F (%) tentative oral bioavailability): 0% | tmax (2 mg/kg i.v., individual animals): 0.25 h | AUC [1]: 36.3 µg·min/mL and 40.8 µg·min/mL and 68.8 µg·min/mL | CL/F [1]: 55.1 mL/min/kg and 49.1 mL/min/kg and 29.1 mL/min/kg | MRT [1]: 1.51 h and 0.782 h | cmax [1]: 0.46 µg/mL and 0.78 µg/mL | t1/2 [1]: 1.54 h and 1.78 h | ADC 0-6 h (i.v. 2 mg/kg, mean n=3): 46.6 µg·min/mL | AUC (i.v. 2 mg/kg, mean n=3): 48.6 µg·min/mL | CL/F (i.v. 2 mg/kg, mean n=3): 44.4 mL/min/kg | clearance (in words) (i.v. dosing, compared to rat liver blood flow): in the range of hepatic blood flow | half-life [2]: 1.52 h | half-life [3]: 1.61 h | concentration in plasma (iv (2 mg/kg), 15 min, individual animals, listed as CK2-3, 2 mg/kg): 398 ng/mL and 456 ng/mL | concentration in plasma (iv (2 mg/kg), 30 min, individual animals, listed as CK2-3, 2 mg/kg): 123 ng/mL and 187 ng/mL and 307 ng/mL | concentration in plasma (iv (2 mg/kg), 1 h, individual animals, listed as CK2-3, 2 mg/kg): 149 ng/mL and 156 ng/mL | concentration in plasma (iv (2 mg/kg), 2 h, individual animals, listed as CK2-3, 2 mg/kg): 62.4 ng/mL and 74.2 ng/mL | concentration in plasma (iv (2 mg/kg), 6 h, individual animals, listed as CK2-3, 2 mg/kg): 14.6 ng/mL and 14.9 ng/mL | detection in plasma after oral (p.o.) administration: detected in plasma only after i.v. administration | detection in plasma after oral (p.o.) administration (listed as CK-2-3): not detected | half-life (plasma, iv, 2 mg/kg, i.v. administration, read-out: half life (converted)): ~1.5 h | concentration at 15 min (plasma, iv, 2 mg/kg, iv (2 mg/kg), 15 min, individual animals): 784 ng/mL | concentration at 1 h (plasma, iv, 2 mg/kg, iv (2 mg/kg), 1 h, individual animals): 79.7 ng/mL | concentration at 2 h (plasma, iv, 2 mg/kg, iv (2 mg/kg), 2 h, individual animals): 63.9 ng/mL | concentration at 6 h (plasma, iv, 2 mg/kg, iv (2 mg/kg), 6 h, individual animals): 13.1 ng/mL

CC(C)c1cc(-c2ccc(Cl)c(F)c2)cc(C(C)C)c1O [p-(3-F,4-Cl—Ph)-propofol, Para-(3-Fluoro,4-chlorophenyl)-propofol]
CL/F [1]: 24.9 mL/min/kg and 30.4 mL/min/kg and 32.5 mL/min/kg | t1/2 [1]: 1.53 h and 1.65 h | CL/F [4]: 153 mL/min/kg and 434 mL/min/kg and 105 mL/min/kg | t1/2 [4]: 7.8 h and 18.5 h and 13.1 h | CL/F (i.v. 2 mg/kg, mean n=3): 29.3 mL/min/kg | bioavailability (in vivo): ~18% | clearance (in words) (in vivo, iv): intermediate | half life (in words) (in vivo, iv): intermediate | ADC 0-6 h (in vivo, iv, 2 mg/kg): 64.1 µg·min/mL | tmax (in vivo, iv, 2 mg/kg): 0.25 h | half-life [2]: 1.36 h | half-life [3]: 1.52 h | concentration at 30 min (in vivo, iv, 2 mg/kg, iv (2 mg/kg), 30 min, individual animals, read-out: concentration in plasma): 444 ng/mL | concentration at 1 h (in vivo, iv, 2 mg/kg, iv (2 mg/kg), 1 h, individual animals, read-out: concentration in plasma): 316 ng/mL | concentration at 2 h (in vivo, iv, 2 mg/kg, iv (2 mg/kg), 2 h, individual animals, read-out: concentration in plasma): 90.3 ng/mL | concentration at 6 h (in vivo, iv, 2 mg/kg, iv (2 mg/kg), 6 h, individual animals, read-out: concentration in plasma): 24.1 ng/mL | ADC 0-6 h (in vivo, po, 20 mg/kg): 34.6 µg·min/mL | CL (in vivo, po, 20 mg/kg): 41.1 mL/min/kg | Tmax (in vivo, po, 20 mg/kg): 0.5 h | Vd (in vivo, po, 20 mg/kg): 54.4 L/kg | bioavailability (in vivo, po, 20 mg/kg): 17.8% | tmax (in vivo, po, 20 mg/kg): 0.5 h | Vd/F (in vivo, po, 20 mg/kg, p.o. 20 mg/kg, mean n=3): 306 L/kg | CL/F (in vivo, po, 20 mg/kg, p.o. 20 mg/kg, mean n=3, read-out: CL/F): 231 mL/min/kg | half-life (in vivo, po, 20 mg/kg, p.o. 20 mg/kg, mean n=3, read-out: t1/2): 13.2 h | concentration in plasma (iv (2 mg/kg), 15 min, individual animals, listed as CK2-9, 2 mg/kg): 1100 ng/mL and 689 ng/mL and 535 ng/mL | concentration in plasma (iv (2 mg/kg), 30 min, individual animals, listed as CK2-9, 2 mg/kg): 499 ng/mL and 513 ng/mL | concentration in plasma (iv (2 mg/kg), 1 h, individual animals, listed as CK2-9, 2 mg/kg): 329 ng/mL and 297 ng/mL | concentration in plasma (iv (2 mg/kg), 2 h, individual animals, listed as CK2-9, 2 mg/kg): 74.0 ng/mL and 81.3 ng/mL | concentration in plasma (iv (2 mg/kg), 6 h, individual animals, listed as CK2-9, 2 mg/kg): 44.0 ng/mL and 46.6 ng/mL | detection in plasma after oral (p.o.) administration: observed in plasma | concentration in plasma (po (20 mg/kg), 30 min, individual animals, listed as CK2-9, 20 mg/kg): 172 ng/mL and 213 ng/mL and 63.0 ng/mL | concentration in plasma (po (20 mg/kg), 1 h, individual animals, listed as CK2-9, 20 mg/kg): 182 ng/mL and 26.6 ng/mL and 121 ng/mL | concentration in plasma (po (20 mg/kg), 2 h, individual animals, listed as CK2-9, 20 mg/kg): 134 ng/mL and 26.2 ng/mL and 168 ng/mL | concentration in plasma (po (20 mg/kg), 4 h, individual animals, listed as CK2-9, 20 mg/kg): 21.5 ng/mL and 97.6 ng/mL | concentration in plasma (po (20 mg/kg), 6 h, individual animals, listed as CK2-9, 20 mg/kg): 121 ng/mL and 22.9 ng/mL and 128 ng/mL

— US8507724B2 (priority 2008, dated 2013)
